Read-outs that look alike come from different tables or passages of the source.
Assays:
[1] = target: native Aβ aggregates in human AD brain sections (Homo sapiens, UniProt P05067); experiment: Aβ in vitro binding assay (autoradiography); conditions: human AD cortical tissue section, 3 nM (FIG. 8)
Protocol: Ten μm thick A30P transgenic mouse brain sections and human PD brain sections are generated with a cryostat (Leica CM3050) at −17° C. chamber temperature and −15° C. object temperature. Sections are transferred to Histobond+ microscope slides (Marienfeld Laboratory Glasware). After drying for 3 hours at room temperature the sections are stored at −20° C. The sections are incubated with the radioligand (0.3-30 nM) and the respective cold compound (at various concentrations) in 50 mM Tris buffer, pH 7.4 at room temperature for 30 min. After washing 3×10 min at 4° C. in 50 mM Tris buffer, pH 7.4 and 3 quick dips in H2O dist. at 4° C. the sections are dried at 4° C. for 3 h. The sections are placed in a FujiFilm Cassette, exposed to an Imaging Plate (BAS-IP TR 2025) for five days and afterwards scanned with a FujiFilm IP reader (BAS-5000) with a resolution of 25 μM per pixel.
This direct in vitro binding assay assesses the affinity of radiotracers for native Aβ aggregates in tissue sections by autoradiography.

[2] = target: T1, aSyn aggregates in A30P transgenic mouse brain tissue (Homo sapiens, UniProt P37840, A30P); experiment: aSyn in vitro binding assay (autoradiography of tritiated compounds); parameters: species or system mutant human aSyn gene)
T1 construct: from tissue; host or cells: brain sections (midbrain and pons as ROI) of A30P transgenic mice, line B6.D2-Tg(Thy1-SNCA*30P)31Pjk
Protocol: (§1) Ten μm thick A30P transgenic mouse brain sections and human PD brain sections are generated with a cryostat (Leica CM3050) at −17° C. chamber temperature and −15° C. object temperature. Sections are transferred to Histobond+ microscope slides (Marienfeld Laboratory Glasware). After drying for 3 hours at room temperature the sections are stored at −20° C. The sections are incubated with the radioligand (0.3-30 nM) and the respective cold compound (at various concentrations) in 50 mM Tris buffer, pH 7.4 at room temperature for 30 min. After washing 3×10 min at 4° C. in 50 mM Tris buffer, pH 7.4 and 3 quick dips in H2O dist. at 4° C. the sections are dried at 4° C. for 3 h. The sections are placed in a FujiFilm Cassette, exposed to an Imaging Plate (BAS-IP TR 2025) for five days and afterwards scanned with a FujiFilm IP reader (BAS-5000) with a resolution of […] per pixel.
Antibody staining of sections is performed after exposure and scanning of the tissue sections undergoing classical autoradiographical analysis. Brain sections were hydrated in PBS and blocked in 1% bovine serum albumin, 1% ovalbumin and 1% normal goat serum in PSB for 20 min. This is followed by overnight incubation at 4° C. with a mixture of anti-aSyn pS129 monoclonal antibody (generated in-house; 1 μg/mL) in blocking buffer. […]

[3] = target: T2, aSyn aggregates (LBs) in human PD brain tissue (Homo sapiens, UniProt P37840); experiment: aSyn in vitro binding assay on human PD tissue sections; conditions: higher magnification
T2 construct: tissue Banner Sun Health Research Institute; host or cells: human PD brain (cortical) tissue sections
Protocol: Human PD brain tissue blocks were obtained from the Banner Sun Health Research Institute (Sun City, Ariz., USA). Pathological diagnosis of PD was made according to standard criteria based on neuropathological data.
as §1
Antibody staining of sections is performed after exposure and scanning of the tissue sections undergoing classical autoradiographical analysis. Brain sections were hydrated in PBS and blocked in 1% bovine serum albumin, 1% ovalbumin and 1% normal goat serum in PSB for 20 min. […]

[4] = target: T3, native aSyn aggregates in A30P transgenic mouse brain sections (Homo sapiens, UniProt P37840, A30P); experiment: aSyn in vitro displacement assay ([3H]Example-3 autoradiography); format: binding, mutant human aSyn gene); conditions: read-out: PCT_INHIB A30P @ 1 μM (% displacement of [3H]Example-3)
T3 construct: from tissue; host or cells: brain sections (midbrain and pons as ROI) of A30P transgenic mice, line B6.D2-Tg(Thy1-SNCA*30P)31Pjk

[5] = target: T4, native Aβ aggregates in human AD brain tissue sections (Homo sapiens, UniProt P05067); experiment: Aβ in vitro displacement assay (selectivity counterscreen, [3H]Example 3 autoradiography); format: binding; conditions: read-out: sel. counterscreen PCT_INHIB AD @ 1 μM (% displacement of [3H]Example 3)
T4 construct: native Aβ aggregates in human AD brain tissue samples; from tissue; host or cells: human AD brain tissue sections

[6] = 1 μM compound, 3 nM [3H]Example-3, A30P transgenic mouse brain sections
[7] = 1 μM compound, 3 nM [3H]Example 3, human AD brain sections

T4 sequence (P05067 672-713 limits assumed): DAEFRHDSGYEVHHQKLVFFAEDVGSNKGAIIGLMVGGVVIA
Sequence of native Aβ aggregates in human AD brain sections (P05067 672-713 limits assumed): as above

With [3H]C([3H])(F)Oc1ccc(C(=O)Nc2ccc(N3CCN(c4cccnc4)CC3)cc2)cc1 [[^3H]Example-134, [^3H]4-(Fluoromethoxy)-N-(4-(4-(pyridin-3-yl)piperazin-1-yl)phenyl)benzamide] the “co-localization of radioligand binding and Aβ mAb staining” value [1] was “excellent co-localization”.

With [3H]C([3H])([3H])Oc1ccc(C(=O)Nc2ccc(N3CCN(c4ccccn4)CC3)cc2)cc1 [[^3H]Example-3, 4-[^3H3] Methoxy-N-[4-(4-pyridin-2-ylpiperazin-1-yl)phenyl]benzamide] the “co-localization of radioligand binding and aSyn antibody pS129 staining” value ([2]; A30P transgenic mouse brain sections) was “excellent co-localization”, the “binding to aSyn aggregates in A30P transgenic mouse brain tissue” value ([2]; radioligand 3 nM (FIG. 1), midbrain and pons) was “strong binding” and the “co-localization of autoradiogram hot spots with LBs stained by aSyn mAb pS129” value [3] was “good co-localization”.

For Cc1ccc(C(=O)Nc2cnc(N3CCN(c4ccccn4)CC3)nc2)cc1 [Example 74, 4-Methyl-N-(2-(4-(pyridin-2-yl)piperazin-1-yl)pyrimidin-5-yl)benzamide], the inhibition at 1 µM [4, 6] was 93% and the inhibition at 1 µM [5, 7] was 95%.

COc1ccc(C(=O)Nc2ccc(N3CCN(c4cccc(C#N)n4)CC3)cc2)cc1 [Example 100, N-[4-[4-(6-Cyano-2-pyridyl)piperazin-1-yl]phenyl]-4-methoxy-benzamide] was tested, and the inhibition at 1 µM [4, 6] was 86% and the inhibition at 1 µM [5, 7] was 85%.

For COc1ccc(C(=O)Nc2ccc(N3CCN(c4ccc(C#N)cn4)CC3)cc2)cc1OC [Example 159, N-(4-(4-(5-Cyanopyridin-2-yl)piperazin-1-yl)phenyl)-3,4-dimethoxybenzamide], the inhibition at 1 µM [4, 6] was 88% and the inhibition at 1 µM [5, 7] was 89%.

For O=C(Nc1ccc(N2CCN(c3ccccn3)CC2)cc1)c1ccc(OCCOCCF)cc1 [Example 12, 4-(2-(2-fluoroethoxy)ethoxy)-N-(4-(4-(pyridin-2-yl)piperazin-1-yl)phenyl) benzamide], the inhibition at 1 µM [4, 6] was 99% and the inhibition at 1 µM [5, 7] was 99%.

With N#Cc1ccc(N2CCN(c3ccc(NC(=O)c4ccc(OCCOCCF)cc4)cc3)CC2)cc1 [Example 122, N-(4-(4-(4-cyanophenyl)piperazin-1-yl)phenyl)-4-(2-(2-fluoroethoxy)ethoxy) benzamide] the inhibition at 1 µM [4, 6] was 88% and the inhibition at 1 µM [5, 7] was 85%.

For COc1ccc(C(=O)Nc2ccc(N3CCN(c4ccccc4)CC3)cc2)cc1 [Example 101, 4-Methoxy-N-[4-(4-phenylpiperazin-1-yl)phenyl]benzamide], the inhibition at 1 µM [4, 6] was 95% and the inhibition at 1 µM [5, 7] was 99%.

N#Cc1ccc(N2CCN(c3ccc(NC(=O)c4ccc(OCCF)cc4)cc3)CC2)nc1 [Example 116, N-[4-[4-(5-Cyano-2-pyridyl)piperazin-1-yl]phenyl]-4-(2-fluoroethoxy)benzamide] showed an inhibition at 1 µM [4, 6] of 81% and an inhibition at 1 µM [5, 7] of 85%.

Molecule O=C(Nc1ccc(N2CCN(c3ccccn3)CC2)cc1)c1ccc(OCCOCCO)cc1 [Example 137, 4-(2-(2-Hydroxyethoxy)ethoxy)-N-(4-(4-(pyridin-2-yl)piperazin-1-yl)phenyl)benzamide] has an inhibition at 1 µM [4, 6] of 80% and an inhibition at 1 µM [5, 7] of 92%.

O=C(Nc1ccc(N2CCN(c3ccccn3)CC2)cc1)c1ccc(OCCF)cc1 [Example 118, 4-(2-Fluoroethoxy)-N-[4-[4-(2-pyridyl)piperazin-1-yl]phenyl]benzamide] gave an inhibition at 1 µM [4, 6] of 88% and an inhibition at 1 µM [5, 7] of 92%.

With COc1ccc(C(=O)Nc2cnc(N3CCN(c4ccc(C#N)cn4)CC3)nc2)cc1 [Example 98, N-(2-(4-(5-Cyanopyridin-2-yl)piperazin-1-yl)pyrimidin-5-yl)-4-methoxybenzamide] the inhibition at 1 µM [4, 6] was 86% and the inhibition at 1 µM [5, 7] was 86%.

In the case of COc1ccc(C(=O)Nc2ccc(N3CCN(c4ccc(C#N)cn4)CC3)cc2)cc1 [Example 50, N-(4-(4-(5-Cyanopyridin-2-yl)piperazin-1-yl)phenyl)-4-methoxybenzamide], the inhibition at 1 µM [4, 6] was 97% and the inhibition at 1 µM [5, 7] was 86%.

With O=C(Nc1ccc(N2CCN(c3cccs3)CC2)cc1)c1ccc(N2CCOCC2)cc1 [Example 94, 4-Morpholino-N-(4-(4-(thiophen-2-yl)piperazin-1-yl)phenyl)benzamide] the inhibition at 1 µM [4, 6] was 81% and the inhibition at 1 µM [5, 7] was 93%.

In the case of COc1ccc(C(=O)Nc2ccc(N3CCN(c4ccncn4)CC3)cc2)cc1 [Example 56, 4-Methoxy-N-{4-[4-(pyrimidin-4-yl)piperazin-1-yl]phenyl}benzamide], the inhibition at 1 µM [4, 6] was 88% and the inhibition at 1 µM [5, 7] was 98%.

With N#Cc1ccc(N2CCN(c3ccc(NC(=O)c4ccc(O)cc4)cc3)CC2)nc1 [Example 108, N-(4-(4-(5-cyanopyridin-2-yl)piperazin-1-yl)phenyl)-4-hydroxybenzamide] the inhibition at 1 µM [4, 6] was 81% and the inhibition at 1 µM [5, 7] was 92%.

N#Cc1ccc(N2CCN(c3ccc(NC(=O)c4ccc(OCCF)cc4)cc3)CC2)cc1 [Example 117, N-[4-[4-(4-Cyanophenyl)piperazin-1-yl]phenyl]-4-(2-fluoroethoxy)benzamide] showed an inhibition at 1 µM [4, 6] of 90% and an inhibition at 1 µM [5, 7] of 88%.

For COc1ccc(C(=O)Nc2ccc(N3CCN(c4ccncc4)CC3)cc2)cc1 [Example 41, 4-Methoxy-N-[4-[4-(4-pyridyl)piperazin-1-yl]phenyl]benzamide], the inhibition at 1 µM [4, 6] was 84% and the inhibition at 1 µM [5, 7] was 90%.

With COc1ccc(C(=O)Nc2ccc(N3CCN(c4ccc(C)cc4)CC3)cc2)cc1 [Example 109, 4-Methoxy-N-[4-[4-(p-tolyl)piperazin-1-yl]phenyl]benzamide] the inhibition at 1 µM [4, 6] was 96% and the inhibition at 1 µM [5, 7] was 97%.

Molecule COc1ccc(C(=O)Nc2ccc(N3CCN(c4ccc(C#N)cc4)CC3)cc2)cn1 [Example 157, N-(4-(4-(4-Cyanophenyl)piperazin-1-yl)phenyl)-6-methoxynicotinamide] has an inhibition at 1 µM [4, 6] of 91% and an inhibition at 1 µM [5, 7] of 92%.

O=C(Nc1ccc(N2CCN(c3ccccn3)CC2)cc1)c1ccc(O)cc1 [Example 2, 4-hydroxy-N-(4-(4-(pyridin-2-yl)piperazin-1-yl)phenyl)benzamide] showed an inhibition at 1 µM [4, 6] of 85% and an inhibition at 1 µM [5, 7] of 93%.

CN(C)c1ccc(C(=O)Nc2ccc(N3CCN(c4nccs4)CC3)cc2)cc1 [Example 20, 4-(Dimethylamino)-N-[4-[4-(1,3-thiazol-2-yl)piperazin-1-yl]phenyl]benzamide] was tested, and the inhibition at 1 µM [4, 6] was 90% and the inhibition at 1 µM [5, 7] was 103%.

In the case of Cc1ccc(C(=O)Nc2ccc(N3CCN(c4ccccn4)CC3)cc2)c(F)c1 [Example 10, 2-Fluoro-4-methyl-N-(4-(4-(pyridin-2-yl)piperazin-1-yl)phenyl)benzamide], the inhibition at 1 µM [4, 6] was 83% and the inhibition at 1 µM [5, 7] was 81%.

CC(C)(C)[Si](C)(C)OC(CF)COc1ccc(C(=O)Nc2ccc(N3CCN(c4ccc(C#N)cc4)CC3)cc2)cc1 (racemic) [Example 127, rac-4-(2-((tert-Butyldimethylsilyl)oxy)-3-fluoropropoxy)-N-(4-(4-(4-cyanophenyl)piperazin-1-yl)phenyl)benzamide] gave an inhibition at 1 µM [4] of 81% and an inhibition at 1 µM [5] of 78%.

Molecule COc1ccc(C(=O)Nc2ccc(N3CCN(c4ncccn4)CC3)cc2)cc1 [Example 49, 4-Methoxy-N-{4-[4-(pyrimidin-2-yl)piperazin-1-yl]phenyl}benzamide] has an inhibition at 1 µM [4, 6] of 92% and an inhibition at 1 µM [5, 7] of 95%.

In the case of COc1ccc(C(=O)Nc2ccc(N3CCN(c4ccc(C#N)cc4)CC3)c(C)c2)cc1 [Example 112, N-[4-[4-(4-Cyanophenyl)piperazin-1-yl]-3-methyl-phenyl]-4-methoxy-benzamide], the inhibition at 1 µM [4, 6] was 87% and the inhibition at 1 µM [5, 7] was 74%.
